In patent EP1247803A2, “Indolinone compounds suitable for modulation of protein kinases” (Sugen, Inc., priority 1996, dated 1998):

target: T1, EGFR (Homo sapiens, UniProt P00533); assay: EGFR ELISA assay (in vitro kinase activity, EGFR captured from A431 cell lysate); type: biochemical; parameters: concentration or dose not given beside the values
T1 construct: Add 7 ug A431 cell lysate per well (EGFR source); endogenous in cells; host or cells: A431
Method in brief: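 EGFR from A431 lysate was captured on anti-EGFR antibody-coated plates and preincubated with compounds for 30 min. Autophosphorylation ran 5 min with 3 uM ATP and 5 mM MnCl2 (final), stopped with 20 mM EDTA. Phosphotyrosine was detected by anti-pTyr ELISA with ABTS/H2O2, read at 410 nm.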

T1 sequence (P00533 25-1210): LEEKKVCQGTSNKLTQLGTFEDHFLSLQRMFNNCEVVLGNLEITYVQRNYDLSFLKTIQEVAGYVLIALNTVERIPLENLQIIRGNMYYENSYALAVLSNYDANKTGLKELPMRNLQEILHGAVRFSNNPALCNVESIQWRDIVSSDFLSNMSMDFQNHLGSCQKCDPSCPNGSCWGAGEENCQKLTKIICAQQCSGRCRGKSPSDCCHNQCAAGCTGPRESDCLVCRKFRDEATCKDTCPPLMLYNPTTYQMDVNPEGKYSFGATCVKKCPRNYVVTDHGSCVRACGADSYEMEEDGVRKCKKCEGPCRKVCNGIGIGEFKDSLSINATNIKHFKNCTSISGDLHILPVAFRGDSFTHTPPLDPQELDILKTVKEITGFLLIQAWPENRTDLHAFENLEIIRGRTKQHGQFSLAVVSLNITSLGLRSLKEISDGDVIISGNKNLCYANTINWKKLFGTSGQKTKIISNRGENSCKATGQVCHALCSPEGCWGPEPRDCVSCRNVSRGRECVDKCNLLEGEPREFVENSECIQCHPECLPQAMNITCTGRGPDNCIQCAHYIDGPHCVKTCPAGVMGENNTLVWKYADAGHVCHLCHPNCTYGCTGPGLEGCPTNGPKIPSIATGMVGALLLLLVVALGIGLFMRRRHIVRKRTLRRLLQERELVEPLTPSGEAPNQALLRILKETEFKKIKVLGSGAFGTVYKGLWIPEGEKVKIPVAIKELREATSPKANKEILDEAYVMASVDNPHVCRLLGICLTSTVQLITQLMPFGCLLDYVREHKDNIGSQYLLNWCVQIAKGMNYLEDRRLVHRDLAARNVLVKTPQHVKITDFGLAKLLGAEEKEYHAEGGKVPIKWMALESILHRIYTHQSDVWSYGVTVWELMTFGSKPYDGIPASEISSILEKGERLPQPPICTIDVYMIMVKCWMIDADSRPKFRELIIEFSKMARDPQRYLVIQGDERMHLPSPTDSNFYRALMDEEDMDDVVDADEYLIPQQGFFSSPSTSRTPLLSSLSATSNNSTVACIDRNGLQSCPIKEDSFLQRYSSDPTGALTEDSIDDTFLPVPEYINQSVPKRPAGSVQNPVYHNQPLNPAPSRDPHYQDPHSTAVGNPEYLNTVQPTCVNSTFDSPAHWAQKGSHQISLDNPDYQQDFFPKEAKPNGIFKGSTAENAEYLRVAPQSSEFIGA

Row | SMILES | Biochem EGFR %Inhibition
1 | O=C1Nc2c(Br)cc(Br)cc2C1=Cc1coc2ccc([N+](=O)[O-])cc2c1=O [10731/A07] | 39.4%
2 | Cc1c(Br)ccc2c1C(=Cc1ccc(Cl)c([N+](=O)[O-])c1)C(=O)N2 [10718/C08] | 13.1%
3 | O=C1Nc2ccc(CCCl)cc2C1=Cc1cc2ccccc2nc1Cl [10730/G08] | 9.5%
4 | CCn1c2ccccc2c2cc(C=C3C(=O)Nc4c(Br)cc(Br)cc43)ccc21 [10731/A02] | 14.8%
5 | CC(C)c1ccc2occ(C=C3C(=O)Nc4ccc(I)cc43)c(=O)c2c1 [10731/B05] | 35.9%
6 | Cc1c(Br)ccc2c1C(=C1C(=O)N(C)c3ccccc31)C(=O)N2 [10731/C10] | 20.9%
7 | COC(=O)c1[nH]c(C)c(C=C2C(=O)Nc3ccc(Br)c(C)c32)c1C(=O)OC [10718/C07] | -4.9%
8 | O=C1Nc2ccc(I)cc2C1=Cc1coc2ccc([N+](=O)[O-])cc2c1=O [10731/B07] | 29.1%
9 | Cc1c(Br)ccc2c1C(=Cc1coc3ccc([N+](=O)[O-])cc3c1=O)C(=O)N2 [10731/C07] | 35.5%
10 | CC(C)c1ccc2occ(C=C3C(=O)Nc4c(Br)cc(Br)cc43)c(=O)c2c1 [10731/A05] | 34.3%
11 | CNS(=O)(=O)c1ccc2c(c1)C(=Cc1coc3cc(C)c(C)cc3c1=O)C(=O)N2 [10731/D03] | 16.3%
12 | C=C(C)C1CC=C(C=C2C(=O)Nc3c(Br)cc(Br)cc32)CC1 (stereo not shown) [10731/A04] | 20.2%
13 | CCn1c2ccccc2c2cc(C=C3C(=O)Nc4ccc(S(=O)(=O)NC)cc43)ccc21 [10731/D02] | 4.9%
14 | CN1C(=O)C(=C2C(=O)Nc3c(Br)cc(Br)cc32)c2ccccc21 [10731/A10] | 26.3%
15 | O=C1Nc2ccc(CCCl)cc2C1=Cc1ccc(-c2ccccc2Cl)o1 [10730/G07] | 6.4%
16 | CCn1c2ccccc2c2cc(C=C3C(=O)Nc4ccc(Br)c(C)c43)ccc21 [10731/C02] | -6.9%
17 | COc1ccc2[nH]cc(C=C3C(=O)Nc4ccc(Br)c(C)c43)c2c1 [10731/C09] | 16.8%
18 | COc1cc(OC)c(OC)cc1C=C1C(=O)Nc2ccc(CCCl)cc21 [10730/G03] | -6.9%
19 | CCOC(=O)CCc1c(C(=O)OCC)[nH]c(C=C2C(=O)Nc3ccc(Br)c(C)c32)c1CC(=O)OCC [10718/C05] | 10.9%
20 | Cc1ccc2occ(C=C3C(=O)Nc4ccc(I)cc43)c(=O)c2c1 [10731/B06] | 37.5%
21 | CCn1c2ccccc2c2cc(C=C3C(=O)Nc4ccc(I)cc43)ccc21 [10731/B02] | 15.5%
22 | C=C(C)C1CC=C(C=C2C(=O)Nc3ccc(I)cc32)CC1 (stereo not shown) [10731/B04] | 31.3%
23 | CCOC(=O)c1cc(C=C2C(=O)Nc3ccc(Br)c(C)c32)oc1C [10718/C06] | 5.6%

Row | SMILES | Biochem EGFR %Inhibition
24 | COc1ccc(C=C2C(=O)Nc3ccc(CCCl)cc32)c(OC)c1OC [10730/G02] | 20.8%
25 | O=C1Nc2c(Br)cc(Br)cc2C1=Cc1ccc[nH]1 [10717/A09] | 37.7%
26 | COc1ccc2[nH]cc(C=C3C(=O)Nc4c(Br)cc(Br)cc43)c2c1 [10731/A09] | 21.9%
27 | Cc1cc2occ(C=C3C(=O)Nc4ccc(Br)c(C)c43)c(=O)c2cc1C [10731/C03] | 9.1%
28 | Cc1cc2occ(C=C3C(=O)Nc4ccc(I)cc43)c(=O)c2cc1C [10731/B03] | 12.3%
29 | COC1CC(C=C2C(=O)Nc3ccc(S(=O)(=O)N4CCOCC4)cc32)C(OC)O1 (stereo not shown) [10730/F10] | 6.2%
30 | COc1ccc2[nH]cc(C=C3C(=O)Nc4ccc(I)cc43)c2c1 [10731/B09] | 15.0%
31 | O=C1Nc2ccc(S(=O)(=O)N3CCOCC3)cc2C1=Cc1coc2c(Br)cc(Br)cc2c1=O [10730/F09] | 17.9%
32 | Cc1ccc2occ(C=C3C(=O)Nc4c(Br)cc(Br)cc43)c(=O)c2c1 [10731/A06] | 30.1%
33 | Cc1cc(C=C2C(=O)Nc3ccc(CCCl)cc32)oc1C [10730/G11] | 26.2%
34 | O=C1Nc2ccc(I)cc2C1=Cc1c[nH]c(=O)[nH]c1=O [10731/B08] | 37.2%
35 | Cc1cc(C=C2C(=O)Nc3ccc(S(=O)(=O)N4CCOCC4)cc32)oc1C [10730/F11] | -24.1%
36 | Cc1ccc2occ(C=C3C(=O)Nc4ccc(Br)c(C)c43)c(=O)c2c1 [10731/C06] | 23.1%
37 | COc1cc(C=C2C(=O)Nc3ccc(CCCl)cc32)cc(OC)c1OC [10730/G04] | -6.7%
38 | Cc1c(O)ccc(C=C2C(=O)Nc3ccc(Br)c(C)c32)c1O [10718/C09] | 26.5%
39 | Cc1cc2occ(C=C3C(=O)Nc4c(Br)cc(Br)cc43)c(=O)c2cc1C [10731/A03] | 10.8%
40 | CN1C(=O)C(=C2C(=O)Nc3ccc(I)cc32)c2ccccc21 [10731/B10] | 50.5%
41 | COC1CC(C=C2C(=O)Nc3ccc(CCCl)cc32)C(OC)O1 (stereo not shown) [10730/G10] | 3.1%
42 | C=C(C)C1CC=C(C=C2C(=O)Nc3ccc(Br)c(C)c32)CC1 (stereo not shown) [10731/C04] | 31.0%
43 | O=C1Nc2c(Br)cc(Br)cc2C1=Cc1c[nH]c(=O)[nH]c1=O [10731/A08] | 25.7%
44 | Cc1c(Br)ccc2c1C(=Cc1coc3ccc(C(C)C)cc3c1=O)C(=O)N2 [10731/C05] | 35.5%
45 | Cc1c(Br)ccc2c1C(=Cc1c[nH]c(=O)[nH]c1=O)C(=O)N2 [10731/C08] | 23.6%
46 | CC(=O)n1cc(C=C2C(=O)Nc3ccc(CCCl)cc32)c2ccccc21 [10730/G05] | -18.2%
